Measurements published in patent publication US10590140B2, “Tetrahydropyrimidodiazepine and dihydropyridodiazepine compounds for treating pain and pain related conditions” (ESTEVE PHARMACEUTICALS, S.A., priority 2016, dated 2020).
Like-named read-outs stand apart in the source and are kept apart here.

Target: human α2δ-1 subunit of Cav2.2 calcium channel (Homo sapiens (Human), UniProt P54289)
Experiment: Binding assay to human α2δ-1 subunit of Cav2.2 calcium channel ([3H]-Gabapentin)
Conditions: read-out: Ki (nM) α2δ-1
In short: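 [3H]-gabapentin binding, 60 min at 27° C; nonspecific binding defined with 10 μM pregabalin. Terminated by filtration on PEI-presoaked GF/C filters, ice-cold 50 mM Tris-HCl pH 7.4 washes, then scintillation counting.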

[1] = binding to α2δ-1, [3H]-Gabapentin

human α2δ-1 subunit of Cav2.2 calcium channel, sequence (P54289 25-1103): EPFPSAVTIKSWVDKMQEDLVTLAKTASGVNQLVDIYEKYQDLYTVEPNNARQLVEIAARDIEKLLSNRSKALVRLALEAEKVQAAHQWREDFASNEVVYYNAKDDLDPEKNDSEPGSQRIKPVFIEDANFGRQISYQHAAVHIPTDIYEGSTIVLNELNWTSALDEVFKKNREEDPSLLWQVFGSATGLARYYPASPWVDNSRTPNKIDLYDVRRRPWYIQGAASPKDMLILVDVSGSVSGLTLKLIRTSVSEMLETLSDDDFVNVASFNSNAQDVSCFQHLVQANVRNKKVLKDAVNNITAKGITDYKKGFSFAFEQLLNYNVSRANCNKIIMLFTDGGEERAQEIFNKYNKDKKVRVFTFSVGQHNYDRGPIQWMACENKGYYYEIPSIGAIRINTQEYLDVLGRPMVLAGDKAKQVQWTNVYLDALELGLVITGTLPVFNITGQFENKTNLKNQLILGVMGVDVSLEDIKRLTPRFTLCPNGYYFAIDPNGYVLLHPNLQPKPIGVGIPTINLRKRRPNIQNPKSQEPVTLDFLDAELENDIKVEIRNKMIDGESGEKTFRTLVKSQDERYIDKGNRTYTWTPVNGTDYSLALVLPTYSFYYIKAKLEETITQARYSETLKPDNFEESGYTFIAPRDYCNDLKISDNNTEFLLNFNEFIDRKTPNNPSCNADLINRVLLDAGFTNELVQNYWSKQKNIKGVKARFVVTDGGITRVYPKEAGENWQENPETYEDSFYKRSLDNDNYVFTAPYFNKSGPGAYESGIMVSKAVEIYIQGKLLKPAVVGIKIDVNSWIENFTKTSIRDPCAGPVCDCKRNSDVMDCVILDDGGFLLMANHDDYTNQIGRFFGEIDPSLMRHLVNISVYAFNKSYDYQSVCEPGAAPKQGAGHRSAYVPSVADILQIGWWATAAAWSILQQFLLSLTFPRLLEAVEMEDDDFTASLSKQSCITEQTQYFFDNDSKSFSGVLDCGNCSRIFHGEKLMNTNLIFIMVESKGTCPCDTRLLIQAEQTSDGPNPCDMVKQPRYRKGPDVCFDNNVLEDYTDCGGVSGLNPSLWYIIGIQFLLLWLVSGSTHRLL

Ki [1] [nM]	Ki (Table 2, dual compounds, [3H]-Gabapentin binding) [nM]	Compound
500 to 3000	–	CCNc1ncc2c(n1)N(C)CCN(c1cccc(-n3cc(CN4CCc5ccccc5C4)nn3)c1)C2=O [Example 282, 6-(3-(4-((3,4-dihydroisoquinolin-2(1H)-yl)methyl)-1H-1,2,3-triazol-1-yl)phenyl)-2-(ethylamino)-9-methyl-6,7,8,9-tetrahydro-5H-pyrimido[4,5-e] [1,4]diazepin-5-one]
> 3000	–	CCNc1ncc2c(n1)N(C)CCN(Cc1cccc(OC(CNC)c3ccccc3)c1)C2=O (stereo not drawn) [Example 200, 2-(ethylamino)-9-methyl-6-(3-(2-(methylamino)-1-phenylethoxy)benzyl)-6,7,8,9-tetrahydro-5H-pyrimido[4,5-e][1,4]diazepin-5-one]
> 3000	–	CCOC(OCC)c1cn(-c2cccc(N3CCN(C)c4nc(SC)ncc4C3=O)c2)nn1 [Example 42, 6-(3-(4-(diethoxymethyl)-1H-1,2,3-triazol-1-yl)phenyl)-9-methyl-2-(methylthio)-6,7,8,9-tetrahydro-5H-pyrimido[4,5-e][1,4]diazepin-5-one]
> 3000	–	CNCCC(Oc1ccccc1CN1CCN(C)c2ncncc2C1=O)c1ccccc1 (stereo not drawn) [Example 431, 9-methyl-6-(2-(3-(methylamino)-1-phenylpropoxy)benzyl)-6,7,8,9-tetrahydro-5H-pyrimido[4,5-e][1,4]diazepin-5-one]
500 to 3000	–	CNCCC(OCc1cccc(N2CCN(C)c3cc(C)ncc3C2=O)c1)c1ccccc1 (stereo not drawn) [Example 306, 1,8-dimethyl-4-(3-((3-(methylamino)-1-phenylpropoxy)methyl)phenyl)-1,2,3,4-tetrahydro-5H-pyrido[4,3-e] [1,4]diazepin-5-one]
> 3000	–	CSc1ncc2c(n1)N(C)CCN(c1cccc(O[C@@H](CCN(C)C(=O)OC(C)(C)C)c3ccccc3)c1)C2=O [Example 3, tert-butyl (S)-methyl(3-(3-(9-methyl-2-(methylthio)-5-oxo-5,7,8,9-tetrahydro-6H-pyrimido[4,5-e][1,4]diazepin-6-yl)phenoxy)-3-phenylpropyl) carbamate]
> 3000	–	CSc1ncc2c(n1)N(C)CCN(c1cccc(COC(CCN(C)C(=O)OC(C)(C)C)c3cccs3)c1)C2=O (stereo not drawn) [Example 15, tert-butyl methyl(3-((3-(9-methyl-2-(methylthio)-5-oxo-5,7,8,9-tetrahydro-6H-pyrimido[4,5-e][1,4]diazepin-6-yl)benzyl)oxy)-3-(thiophen-2-yl)propyl) carbamate]
> 3000	–	CCNc1ncc2c(n1)N(C)CCN(c1cccc(COC(CCN(C)C(=O)OC(C)(C)C)c3ccccc3)c1)C2=O (stereo not drawn) [Example 77, tert-butyl (3-((3-(2-(ethylamino)-9-methyl-5-oxo-5,7,8,9-tetrahydro-6H-pyrimido[4,5-e][1,4]diazepin-6-yl)benzyl)oxy)-3-phenylpropyl)(methyl) carbamate]
500 to 3000	–	CNCC[C@H](Oc1ccc(CN2CCN(C)c3ccncc3C2=O)cc1)c1ccccc1 [Example 377, (S)-1-methyl-4-(4-(3-(methylamino)-1-phenylpropoxy)benzyl)-1,2,3,4-tetrahydro-5H-pyrido[4,3-e][1,4]diazepin-5-one]
100 to 500	–	CCNc1ncc2c(n1)N(CC)CCN(c1cccc(-c3nnc(C)o3)c1)C2=O [Example 107, 9-ethyl-2-(ethylamino)-6-(3-(5-methyl-1,3,4-oxadiazol-2-yl)phenyl)-6,7,8,9-tetrahydro-5H-pyrimido[4,5-e][1,4]diazepin-5-one]
> 3000	–	CSc1ncc2c(n1)N(C)CCN(c1cccc(CO[C@H](CCN(C)C(=O)OC(C)(C)C)c3cccs3)c1)C2=O [Example 16, tert-butyl (R)-methyl(3-((3-(9-methyl-2-(methylthio)-5-oxo-5,7,8,9-tetrahydro-6H-pyrimido[4,5-e][1,4]diazepin-6-yl)benzyl)oxy)-3-(thiophen-2-yl)propyl) carbamate]
100 to 500	100 to 500	CCNc1ncc2c(n1)N(C)CCN(c1cccc(CO[C@H](CCNC)c3cccs3)c1)C2=O [Example 212, (R)-2-(ethylamino)-9-methyl-6-(3-((3-(methylamino)-1-(thiophen-2-yl)propoxy)methyl)phenyl)-6,7,8,9-tetrahydro-5H-pyrimido[4,5-e][1,4]diazepin-5-one]
> 3000	–	CSc1ncc2c(n1)N(C)CCN(c1cccc(-n3cc(CN(C)C(=O)OC(C)(C)C)nn3)c1)C2=O [Example 39, tert-butyl methyl((1-(3-(9-methyl-2-(methylthio)-5-oxo-5,7,8,9-tetrahydro-6H-pyrimido[4,5-e][1,4]diazepin-6-yl)phenyl)-1H-1,2,3-triazol-4-yl)methyl) carbamate]
> 3000	–	CCNc1ncc2c(n1)N(C)CCN(c1ccc(OC(CN(C)C(=O)OC(C)(C)C)c3ccccc3)cc1)C2=O (stereo not drawn) [Example 76, tert-butyl (2-(4-(2-(ethylamino)-9-methyl-5-oxo-5,7,8,9-tetrahydro-6H-pyrimido[4,5-e][1,4]diazepin-6-yl)phenoxy)-2-phenylethyl)(methyl) carbamate]
> 3000	–	CCNc1ncc2c(n1)N(C)CCN(c1cccc(OCCCN(Cc3ccccc3)C(=O)OC(C)(C)C)c1)C2=O [Example 89, tert-butyl benzyl (3-(3-(2-(ethylamino)-9-methyl-5-oxo-5,7,8,9-tetrahydro-6H-pyrimido[4,5-e][1,4]diazepin-6-yl)phenoxy)propyl) carbamate]
> 3000	–	CNCCC(OCc1ccccc1N1CCN(C)c2nc(SC)ncc2C1=O)c1ccccc1 (stereo not drawn) [Example 318, 9-methyl-6-(2-((3-(methylamino)-1-phenylpropoxy)methyl)phenyl)-2-(methylthio)-6,7,8,9-tetrahydro-5H-pyrimido[4,5-e][1,4]diazepin-5-one]
> 3000	–	CCNc1ncc2c(n1)N(C)CCN(c1cccc(-n3cc(CN(Cc4ccccc4)C(=O)OC(C)(C)C)nn3)c1)C2=O [Example 118, tert-butyl benzyl((1-(3-(2-(ethylamino)-9-methyl-5-oxo-5,7,8,9-tetrahydro-6H-pyrimido[4,5-e][1,4]diazepin-6-yl)phenyl)-1H-1,2,3-triazol-4-yl)methyl)carbamate]
500 to 3000	–	CCNc1ncc2c(n1)N(C)CCN(c1cccc(COC(CCNC)C(C)C)c1)C2=O (stereo not drawn) [Example 189, 2-(ethylamino)-9-methyl-6-(3-(((4-methyl-1-(methylamino)pentan-3-yl)oxy)methyl)phenyl)-6,7,8,9-tetrahydro-5H-pyrimido[4,5-e][1,4]diazepin-5-one]
> 3000	–	CSc1ncc2c(n1)N(C)CCN(c1cccc(-n3cc(CNC(=O)OC(C)(C)C)nn3)c1)C2=O [Example 40, tert-butyl ((1-(3-(9-methyl-2-(methylthio)-5-oxo-5,7,8,9-tetrahydro-6H-pyrimido[4,5-e][1,4]diazepin-6-yl)phenyl)-1H-1,2,3-triazol-4-yl)methyl) carbamate]
> 3000	–	CCNc1ncc2c(n1)N(C)CCN(c1cccc(CO[C@H](CCN(C)C(=O)OC(C)(C)C)c3cccs3)c1)C2=O [Example 84, tert-butyl (R)-(3-((3-(2-(ethylamino)-9-methyl-5-oxo-5,7,8,9-tetrahydro-6H-pyrimido[4,5-e][1,4]diazepin-6-yl)benzyl)oxy)-3-(thiophen-2-yl)propyl)(methyl) carbamate]
> 3000	–	CCNc1ncc2c(n1)N(C)CCN(c1cccc(-c3nnc(CNC)o3)c1)C2=O [Example 187, 2-(ethylamino)-9-methyl-6-(3-(5-((methylamino)methyl)-1,3,4-oxadiazol-2-yl)phenyl)-6,7,8,9-tetrahydro-5H-pyrimido[4,5-e][1,4]diazepin-5-one]
100 to 500	–	CCNc1ncc2c(n1)N(C)CCN(c1cccc(CCN3CCC4(CC3)CN(C(C)C)C(=O)[C@@H](C)O4)c1)C2=O [Example 276, (R)-9-(3-(2-(ethylamino)-9-methyl-5-oxo-5,7,8,9-tetrahydro-6H-pyrimido[4,5-e][1,4]diazepin-6-yl)phenethyl)-4-isopropyl-2-methyl-1-oxa-4,9-diazaspiro[5.5]undecan-3-one]
> 3000	–	CSc1ncc2c(n1)N(C)CCN(c1cccc(OCCCN(C)C(=O)OC(C)(C)C)c1)C2=O [Example 20, tert-butyl methyl(3-(3-(9-methyl-2-(methylthio)-5-oxo-5,7,8,9-tetrahydro-6H-pyrimido[4,5-e][1,4]diazepin-6-yl)phenoxy)propyl) carbamate]

Compound	Ki [1] [nM]	Ki (Table 2, dual compounds, [3H]-Gabapentin binding) [nM]
Cc1cc2c(cn1)C(=O)N(Cc1ccc(O[C@@H](CCN(C)C(=O)OCC[Si](C)(C)C)c3cccs3)cc1)CCN2C [Example 301, 2-(trimethylsilyl)ethyl (S)-(3-(4-((1,8-dimethyl-5-oxo-1,2,3,5-tetrahydro-4H-pyrido[4,3-e][1,4]diazepin-4-yl)methyl)phenoxy)-3-(thiophen-2-yl)propyl)(methyl) carbamate]	> 3000	–
CN(CCC(Oc1cccc(N2CCN(C)c3ncncc3C2=O)c1)c1cccs1)C(=O)OCC[Si](C)(C)C (stereo not drawn) [Example 147, 2-(trimethylsilyl)ethyl methyl(3-(3-(9-methyl-5-oxo-5,7,8,9-tetrahydro-6H-pyrimido[4,5-e][1,4]diazepin-6-yl)phenoxy)-3-(thiophen-2-yl)propyl)carbamate]	> 3000	–
Cc1cc2c(cn1)C(=O)N(c1cccc(OC(CCN(C)C(=O)OCC[Si](C)(C)C)c3cccs3)c1)CCN2C (stereo not drawn) [Example 302, 2-(trimethylsilyl)ethyl (3-(3-(1,8-dimethyl-5-oxo-1,2,3,5-tetrahydro-4H-pyrido[4,3-e][1,4]diazepin-4-yl)phenoxy)-3-(thiophen-2-yl)propyl) (methyl)carbamate]	> 3000	–
